From ChEMBL document CHEMBL3352681, “A cyclic GB virus C derived peptide with anti-HIV-1 activity targets the fusion peptide of HIV-1” (Eur J Med Chem, 2014)
Calls of active or inactive are those of the source. The calls are words filed in the database; no cut-off is given here. Peptide text beside a SMILES is read from it.

Columns and labels:
[1] = system: Human immunodeficiency virus 1; test: Binding affinity to biotin-labeled HIV1 fusion protein using 5 uM compound immobilized on microtiter plates by ELISA method
[2] = system: Human immunodeficiency virus 1; test: Binding affinity to [W8]HIV1 fusion protein assessed as mole fraction partition coefficients in POPG liposomes by fluorescence assay; settings: Microsome
[3] = system: Human immunodeficiency virus 1; test: Inhibition of fusogenic capacity of HIV1 fusion protein in POPG LUVs assessed as reduction in fusion protein-induced vesicular permeabilization process at compound/fusion protein ratio of 20 by ANTS/DPX assay
[4] = system: Human immunodeficiency virus 1; test: Inhibition of fusogenic capacity of HIV1 fusion protein in rabbit RBCs assessed as reduction in fusion protein-induced hemolsysis at 10 to 1000 uM after 60 mins
[5] = system: Human immunodeficiency virus 1; test: Binding affinity to HIV1 fusion protein in POPG vesicles assessed as induction of conformational changes infusion secondary structure by CD spectroscopy
[6] = system: Human immunodeficiency virus 1; test: Binding affinity to HIV1 fusion protein in PLGA nanoparticles assessed as protein-protein interactions by STD-NMR spectroscopy
[7] = system: Human immunodeficiency virus 1; test: Binding affinity to biotin-labeled HIV1 fusion protein using compound immobilized on microtiter plates by ELISA method
[8] = system: Human immunodeficiency virus 1; test: Inhibition of biotin-labeled HIV1 fusion protein binding to immobilized E1P8cyc peptide by ELISA method
[9] = system: Human immunodeficiency virus 1; test: Binding affinity to NBD-labeled HIV1 fusion protein in POPG LUVs at 0.0125 to 0.4 uM using Rho-labeled compound by FRET assay
Murine leukemia virus = test: Binding affinity to NBD-labeled MLV fusion protein in POPG LUVs at 0.0125 to 0.4 uM using Rho-labeled compound by FRET assay
[10] = system: Human immunodeficiency virus 1; test: Binding affinity to HIV1 fusion protein in DPPG lipid monolayers at 5% by compression isotherms analysis
[11] = system: Human immunodeficiency virus 1; test: Binding affinity to HIV1 fusion protein in DPPG lipid monolayers assessed as reduction in fusion protein-induced lipid layer phase transition at 5% by fluorescence microscopy
[12] = target: T1, Melittin (Apis mellifera) (UniProt P01501); test: Binding affinity to bee venom melittin in POPG LUVs assessed as reduction in melittin-induced vesicular permeabilization process at compound/melittin ratio of 10 by ANTS/DPX assay
T1 sequence (whole entry): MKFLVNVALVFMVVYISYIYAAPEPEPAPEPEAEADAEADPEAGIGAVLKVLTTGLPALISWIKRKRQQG

[13] = system: Human immunodeficiency virus 1; test: Inhibition of fusogenic capacity of HIV1 fusion protein in rabbit RBCs assessed as reduction in fusion protein-induced hemolsysis at 1 to 100 uM after 60 mins
[14] = Toxicity against rabbit RBCs assessed as induction of hemolysis after 60 mins; format: cell-based, Oryctolagus cuniculus; settings: erythrocyte, 1 h
[15] = system: Human immunodeficiency virus 1; test: Antiviral activity against HIV1 NL4-3 in cell based assay; format: functional, organism-based; settings: Human immunodeficiency virus 1, NL4-3
[16] = system: Human immunodeficiency virus 1; test: Antiviral activity against HIV1 NL4-3 infected in TZM-bl cells assessed as inhibition of viral replication; format: functional, organism-based
HeLa [17] = test: Inhibition of HIV1 fusion protein assessed as inhibition of syncytium formation between HeLa cells expressing HIV-1 envelope protein and TZM-bl cells expressing human CD4 receptor; format: cell-based; settings: Human immunodeficiency virus 1
HeLa [18] = test: Inhibition of HIV1 fusion protein assessed as inhibition of syncytium formation between HeLa cells expressing HIV-1 envelope protein and TZM-bl cells expressing human CXCR4 receptor; format: cell-based; settings: Human immunodeficiency virus 1
HeLa [19] = test: Inhibition of HIV1 fusion protein assessed as inhibition of syncytium formation between HeLa cells expressing HIV-1 envelope protein and TZM-bl cells expressing human CCR5 receptor; format: cell-based; settings: Human immunodeficiency virus 1

Row | Compound | Activity [1] | K (mole fraction) [2] | inhibition [3] | inhibition [4] | Activity [5] | Activity [6] | Activity [8] | Activity [9] | Activity [10] | Activity [11] | inhibition [13] | Activity [14] | Activity [16] | inhibition (HeLa [17]) | inhibition (HeLa [18]) | inhibition (HeLa [19]) | further results
1 | CC[C@H](C)[C@H](NC(=O)[C@H](CC(=O)O)NC(=O)[C@H](CCC(=O)O)NC(=O)[C@@H]1CCCN1C(=O)[C@H](C)N)C(=O)NCC(=O)N[C@@H](Cc1ccccc1)C(=O)N[C@@H](CS)C(=O)N[C@@H](CC(C)C)C(=O)N[C@@H](CCC(=O)O)C(=O)NCC(=O)NCC(=O)N[C@@H](CS)C(=O)N[C@@H](CC(C)C)C(=O)N[C@H](C(=O)N[C@@H](C)C(=O)N[C@@H](CC(C)C)C(=O)NCC(=O)O)C(C)C (H-APEDIGFCLEGGCLVALG-OH) | inactive | 730000 | Active | Active | Active | inactive |  |  |  |  |  |  |  |  |  |  | 
2 | CC[C@H](C)[C@H](NC(=O)[C@H](CC(=O)O)NC(=O)[C@H](CCC(=O)O)NC(=O)[C@@H]1CCCN1C(=O)[C@H](C)N)C(=O)NCC(=O)N[C@@H](Cc1ccccc1)C(=O)N[C@H]1CSSC[C@@H](C(=O)N[C@@H](CC(C)C)C(=O)N[C@H](C(=O)N[C@@H](C)C(=O)N[C@@H](CC(C)C)C(=O)NCC(=O)O)C(C)C)NC(=O)CNC(=O)CNC(=O)[C@H](CCC(=O)O)NC(=O)[C@H](CC(C)C)NC1=O (HELM PEPTIDE1{A.P.E.D.I.G.F.C.L.E.G.G.C.L.V.A.L.G}$PEPTIDE1,PEPTIDE1,8:R3-13:R3$$$V2.0) | Active | 580000 |  |  | Active | Active | Active | Active | Active | Active | Dose-dependent effect | Non-toxic |  |  |  |  | Activity [7]: Dose-dependent effect; Activity (Murine leukemia virus): inactive; Imax [3]: 40%; Activity [12]: inactive; IC50 [15]: 7.8 µM
3 | H-LEAIPCSIPPEFLFGKPFVF-OH | Active |  |  |  | Active | inactive |  | Active | Active | Active | Active | Non-toxic | Active | Active | Active | Active | 
4 | H-SGVLTVGVALTRRVYPVP-OH | inactive |  | inactive | inactive | inactive |  | inactive |  |  |  |  |  | inactive | inactive | inactive | inactive | 
